Source: patent US9579314B2 (priority 2015, dated 2017)

biological target: Human β2 adrenoceptor (Homo sapiens, UniProt P07550); conditions: read-out: B2 binding affinity
Sequence (P07550 whole entry): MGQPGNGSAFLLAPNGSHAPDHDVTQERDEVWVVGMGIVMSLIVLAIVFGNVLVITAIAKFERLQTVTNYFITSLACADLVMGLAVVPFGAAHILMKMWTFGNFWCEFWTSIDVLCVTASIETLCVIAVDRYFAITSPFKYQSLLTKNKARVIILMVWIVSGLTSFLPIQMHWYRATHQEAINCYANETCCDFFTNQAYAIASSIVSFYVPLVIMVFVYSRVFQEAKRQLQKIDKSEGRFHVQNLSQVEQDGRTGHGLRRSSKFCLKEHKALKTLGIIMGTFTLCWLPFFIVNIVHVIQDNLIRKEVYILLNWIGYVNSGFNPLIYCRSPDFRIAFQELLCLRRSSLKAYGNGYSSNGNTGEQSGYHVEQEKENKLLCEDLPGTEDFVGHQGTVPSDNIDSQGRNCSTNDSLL

SMILES	IC50
CN(C)CCOC(=O)[C@](O)(c1ccccc1)c1cccc(OCCCCCNC[C@H](O)c2ccc(O)c3[nH]c(=O)ccc23)c1 [Compound 17, (S)-2-(dimethylamino)ethyl 2-hydroxy-2-(3-((5-(((R)-2-hydroxy-2-(8-hydroxy-2-oxo-1,2-dihydroquinolin-5-yl)ethyl)amino)pentyl)oxy)phenyl)-2-phenylacetate]	0.3 to 3 nM
CN1CC(OC(=O)[C@](O)(c2ccccc2)c2cccc(OCCCCCNC[C@H](O)c3ccc(O)c4[nH]c(=O)ccc34)c2)C1 [Compound 26, (S)-1-methylazetidin-3-yl 2-hydroxy-2-(3-((5-(((R)-2-hydroxy-2-(8-hydroxy-2-oxo-1,2-dihydroquinolin-5-yl)ethyl)amino)pentyl)oxy)phenyl)-2-phenylacetate]	< 0.3 nM
CN1CC[C@@H](OC(=O)C(O)(c2ccccc2)c2cccc(C(=O)NCCCCNC[C@H](O)c3ccc(O)c4[nH]c(=O)ccc34)c2)C1 (stereo partly drawn) [Compound 49, (R)-1-methylpyrrolidin-3-yl 2-hydroxy-2-(3-((4-(((R)-2-hydroxy-2-(8-hydroxy-2-oxo-1,2-dihydroquinolin-5-yl)ethyl)amino)butyl)carbamoyl)phenyl)-2-phenylacetate diformate]	< 0.3 nM
O=C(NCCCOc1cccc([C@](O)(C(=O)O[C@H]2CCN(Cc3ccccc3)C2)c2ccccc2)c1)c1ccc(CNC[C@H](O)c2ccc(O)c3[nH]c(=O)ccc23)cc1 [Compound 164, (S)-1-benzylpyrrolidin-3-yl (S)-2-hydroxy-2-(3-(3-(4-((((R)-2-hydroxy-2-(8-hydroxy-2-oxo-1,2-dihydroquinolin-5-yl)ethyl)amino)methyl)benzamido)propoxy)phenyl)-2-phenylacetate]	0.3 to 3 nM
CN1CC[C@@H](OC(=O)[C@@](O)(c2ccccc2)c2cccc(OCCCCCNC[C@H](O)c3ccc(O)c4[nH]c(=O)ccc34)c2)C1 [Compound 20, (R)-(R)-1-methylpyrrolidin-3-yl 2-hydroxy-2-(3-((5-(((R)-2-hydroxy-2-(8-hydroxy-2-oxo-1,2-dihydroquinolin-5-yl)ethyl)amino)pentyl)oxy)phenyl)-2-phenylacetate]	< 0.3 nM
CN1CCC(OC(=O)[C@](O)(c2ccccc2)c2cccc(OCCCCCNC[C@H](O)c3ccc(O)c4[nH]c(=O)ccc34)c2)CC1 [Compound 21, (S)-1-methylpiperidin-4-yl 2-hydroxy-2-(3-((5-(((R)-2-hydroxy-2-(8-hydroxy-2-oxo-1,2-dihydroquinolin-5-yl)ethyl)amino)pentyl)oxy)phenyl)-2-phenylacetate]	< 0.3 nM
COc1cc(NC(=O)NCc2ccc(COc3cccc([C@](O)(C(=O)OC4CCN(Cc5ccccc5)CC4)c4ccccc4)c3)cc2)ccc1CNC[C@H](O)c1ccc(O)c2[nH]c(=O)ccc12 [Compound 167, 1-benzylpiperidin-4-yl (S)-2-hydroxy-2-(3-((4-((3-(4-((((R)-2-hydroxy-2-(8-hydroxy-2-oxo-1,2-dihydroquinolin-5-yl)ethyl)amino)methyl)-3-methoxyphenyl)ureido)methyl)benzyl)oxy)phenyl)-2-phenylacetate]	0.3 to 3 nM
COc1cc(CNC[C@H](O)c2ccc(O)c3[nH]c(=O)ccc23)ccc1NC(=O)NCc1ccc(COc2cccc([C@](O)(C(=O)OC3CCN(Cc4ccccc4)CC3)c3ccccc3)c2)cc1 [Compound 168, 1-benzylpiperidin-4-yl (S)-2-hydroxy-2-(3-((4-((3-(4-((((R)-2-hydroxy-2-(8-hydroxy-2-oxo-1,2-dihydroquinolin-5-yl)ethyl)amino)methyl)-2-methoxyphenyl)ureido)methyl)benzyl)oxy)phenyl)-2-phenylacetate]	0.3 to 3 nM
CN1CC[C@@H](OC(=O)[C@](O)(c2ccccc2)c2cccc(OCCCCCNC[C@H](O)c3ccc(O)c4[nH]c(=O)ccc34)c2)C1 [Compound 19]	< 0.3 nM
O=C(NCCCOc1cccc([C@](O)(C(=O)OC[C@H]2CCN(Cc3ccccc3)C2)c2ccccc2)c1)c1ccc(CNC[C@H](O)c2ccc(O)c3[nH]c(=O)ccc23)cc1 [Compound 160, ((S)-1-benzylpyrrolidin-3-yl)methyl (S)-2-hydroxy-2-(3-(3-(4-((((R)-2-hydroxy-2-(8-hydroxy-2-oxo-1,2-dihydroquinolin-5-yl)ethyl)amino)methyl)benzamido)propoxy)phenyl)-2-phenylacetate]	< 0.3 nM
O=C(NCc1ccc(COc2cccc([C@](O)(C(=O)OC3CCN(Cc4ccccc4)CC3)c3ccccc3)c2)cc1)Nc1ccc(CNC[C@H](O)c2ccc(O)c3[nH]c(=O)ccc23)cc1 [Compound 166, 1-Benzylpiperidin-4-yl (S)-2-hydroxy-2-(3-((4-((3-(4-((((R)-2-hydroxy-2-(8-hydroxy-2-oxo-1,2-dihydroquinolin-5-yl)ethyl)amino)methyl)phenyl)ureido)-methyl)benzyl)oxy)phenyl)-2-phenylacetate]	0.3 to 3 nM
CN(C)CCOC(=O)[C@@](O)(c1ccccc1)c1cccc(OCCCCCNC[C@H](O)c2ccc(O)c3[nH]c(=O)ccc23)c1 [Compound 18, (R)-2-(dimethylamino)ethyl 2-hydroxy-2-(3-((5-(((R)-2-hydroxy-2-(8-hydroxy-2-oxo-1,2-dihydroquinolin-5-yl)ethyl)amino)pentyl)oxy)phenyl)-2-phenylacetate]	< 0.3 nM
O=C(NCCCOc1cccc([C@](O)(C(=O)OC[C@@H]2CCN(Cc3ccccc3)C2)c2ccccc2)c1)c1ccc(CNC[C@H](O)c2ccc(O)c3[nH]c(=O)ccc23)cc1 [Compound 159, ((R)-1-benzylpyrrolidin-3-yl)methyl (S)-2-hydroxy-2-(3-(3-(4-((((R)-2-hydroxy-2-(8-hydroxy-2-oxo-1,2-dihydroquinolin-5-yl)ethyl)amino)methyl)benzamido)propoxy)phenyl)-2-phenylacetate]	< 0.3 nM
O=C(NCCCOc1cccc([C@](O)(C(=O)OC2CN(Cc3ccccc3)C2)c2ccccc2)c1)c1ccc(CNC[C@H](O)c2ccc(O)c3[nH]c(=O)ccc23)cc1 [Compound 165, 1-benzylazetidin-3-yl (S)-2-hydroxy-2-(3-(3-(4-((((R)-2-hydroxy-2-(8-hydroxy-2-oxo-1,2-dihydroquinolin-5-yl)ethyl)amino)methyl)benzamido)propoxy)phenyl)-2-phenylacetate]	< 0.3 nM
O=C(NCCCOc1cccc([C@](O)(C(=O)OC2CCN(Cc3ccccc3)CC2)c2ccccc2)c1)c1ccc(CNC[C@H](O)c2ccc(O)c3[nH]c(=O)ccc23)cc1 [Compound 158, 1-Benzylpiperidin-4-yl (S)-2-hydroxy-2-(3-(3-(4-((((R)-2-hydroxy-2-(8-hydroxy-2-oxo-1,2-dihydroquinolin-5-yl)ethyl)amino)methyl)benzamido)propoxy)phenyl)-2-phenylacetate]	< 0.3 nM
CN1CCC(OC(=O)[C@@](O)(c2ccccc2)c2cccc(OCCCCCNC[C@H](O)c3ccc(O)c4[nH]c(=O)ccc34)c2)CC1 [Compound 22, (R)-1-methylpiperidin-4-yl 2-hydroxy-2-(3-((5-(((R)-2-hydroxy-2-(8-hydroxy-2-oxo-1,2-dihydroquinolin-5-yl)ethyl)amino)pentyl)oxy)phenyl)-2-phenylacetate]	< 0.3 nM
CN1CCC[C@@H](OC(=O)[C@](O)(c2ccccc2)c2cccc(OCCCCCNC[C@H](O)c3ccc(O)c4[nH]c(=O)ccc34)c2)C1 [Compound 25]	< 0.3 nM
